Assay: molar heat capacity at constant volume; xn = mol fraction of the nth substance listed
Details: x1 = 0.2607

N [ammonia] + O
Details | molar heat capacity at constant volume [J/K/mol]
600.42 K, Fluid (supercritical or subcritical phases), Mass density=309.95 kg/m3, isochoric heat capacity | 99.2
600.43 K, Fluid (supercritical or subcritical phases), Mass density=301.94 kg/m3, isochoric heat capacity | 108.54
600.45 K, Fluid (supercritical or subcritical phases), Mass density=308.35 kg/m3, isochoric heat capacity | 94.94
600.48 K, Fluid (supercritical or subcritical phases), Mass density=299.79 kg/m3, isochoric heat capacity | 116.67
600.48 K, Liquid, Isochoric heat capacity | 116.67
600.5 K, Fluid (supercritical or subcritical phases), Mass density=299.79 kg/m3, isochoric heat capacity | 112.59
600.5 K, Fluid (supercritical or subcritical phases), Mass density=303.47 kg/m3, isochoric heat capacity | 94.55
600.51 K, Fluid (supercritical or subcritical phases), Mass density=301.94 kg/m3, isochoric heat capacity | 105.98
600.51 K, Fluid (supercritical or subcritical phases), Mass density=309.95 kg/m3, isochoric heat capacity | 100.78
600.59 K, Fluid (supercritical or subcritical phases), Mass density=299.79 kg/m3, isochoric heat capacity | 104.74
600.59 K, Fluid (supercritical or subcritical phases), Mass density=301.94 kg/m3, isochoric heat capacity | 99.68
600.59 K, Fluid (supercritical or subcritical phases), Mass density=303.47 kg/m3, isochoric heat capacity | 94.4
600.59 K, Fluid (supercritical or subcritical phases), Mass density=309.95 kg/m3, isochoric heat capacity | 100.97
600.62 K, Fluid (supercritical or subcritical phases), Mass density=308.35 kg/m3, isochoric heat capacity | 91.03
600.63 K, Fluid (supercritical or subcritical phases), Mass density=297.6 kg/m3, isochoric heat capacity | 114.9
600.63 K, Liquid, Isochoric heat capacity | 114.9
600.66 K, Fluid (supercritical or subcritical phases), Mass density=303.47 kg/m3, isochoric heat capacity | 95.13
600.67 K, Fluid (supercritical or subcritical phases), Mass density=299.79 kg/m3, isochoric heat capacity | 101.47
600.69 K, Fluid (supercritical or subcritical phases), Mass density=309.95 kg/m3, isochoric heat capacity | 95.49
600.72 K, Fluid (supercritical or subcritical phases), Mass density=297.6 kg/m3, isochoric heat capacity | 112.64
600.77 K, Fluid (supercritical or subcritical phases), Mass density=297.6 kg/m3, isochoric heat capacity | 109.73
600.77 K, Fluid (supercritical or subcritical phases), Mass density=299.79 kg/m3, isochoric heat capacity | 98.67
600.77 K, Fluid (supercritical or subcritical phases), Mass density=305.44 kg/m3, isochoric heat capacity | 101.79
600.8 K, Fluid (supercritical or subcritical phases), Mass density=308.35 kg/m3, isochoric heat capacity | 92.66
600.81 K, Fluid (supercritical or subcritical phases), Mass density=294.44 kg/m3, isochoric heat capacity | 113.83
600.81 K, Liquid, Isochoric heat capacity | 113.83
600.85 K, Fluid (supercritical or subcritical phases), Mass density=294.44 kg/m3, isochoric heat capacity | 111.38
600.85 K, Fluid (supercritical or subcritical phases), Mass density=297.6 kg/m3, isochoric heat capacity | 105.54
600.85 K, Fluid (supercritical or subcritical phases), Mass density=305.44 kg/m3, isochoric heat capacity | 96.13
600.86 K, Fluid (supercritical or subcritical phases), Mass density=299.79 kg/m3, isochoric heat capacity | 99.55
600.9 K, Fluid (supercritical or subcritical phases), Mass density=342.18 kg/m3, isochoric heat capacity | 88.83
600.93 K, Fluid (supercritical or subcritical phases), Mass density=292.97 kg/m3, isochoric heat capacity | 112.06
600.93 K, Liquid, Isochoric heat capacity | 112.06
600.94 K, Fluid (supercritical or subcritical phases), Mass density=292.97 kg/m3, isochoric heat capacity | 106.05
600.94 K, Fluid (supercritical or subcritical phases), Mass density=294.44 kg/m3, isochoric heat capacity | 103.91
600.94 K, Fluid (supercritical or subcritical phases), Mass density=297.6 kg/m3, isochoric heat capacity | 103.82
600.94 K, Fluid (supercritical or subcritical phases), Mass density=305.44 kg/m3, isochoric heat capacity | 99.89
600.94 K, Fluid (supercritical or subcritical phases), Mass density=320.33 kg/m3, isochoric heat capacity | 94.88
600.98 K, Fluid (supercritical or subcritical phases), Mass density=308.35 kg/m3, isochoric heat capacity | 89.18
601.02 K, Fluid (supercritical or subcritical phases), Mass density=305.44 kg/m3, isochoric heat capacity | 99.43
601.02 K, Fluid (supercritical or subcritical phases), Mass density=320.33 kg/m3, isochoric heat capacity | 95.95
601.02 K, Fluid (supercritical or subcritical phases), Mass density=342.18 kg/m3, isochoric heat capacity | 87.43
601.04 K, Fluid (supercritical or subcritical phases), Mass density=292.97 kg/m3, isochoric heat capacity | 101.74
601.05 K, Fluid (supercritical or subcritical phases), Mass density=291.16 kg/m3, isochoric heat capacity | 111.35
601.05 K, Liquid, Isochoric heat capacity | 111.35
601.08 K, Fluid (supercritical or subcritical phases), Mass density=291.16 kg/m3, isochoric heat capacity | 105.11
601.11 K, Fluid (supercritical or subcritical phases), Mass density=292.97 kg/m3, isochoric heat capacity | 94.42
601.11 K, Fluid (supercritical or subcritical phases), Mass density=301.94 kg/m3, isochoric heat capacity | 97.37
601.11 K, Fluid (supercritical or subcritical phases), Mass density=305.44 kg/m3, isochoric heat capacity | 95.1
601.11 K, Fluid (supercritical or subcritical phases), Mass density=320.33 kg/m3, isochoric heat capacity | 90.05
601.12 K, Fluid (supercritical or subcritical phases), Mass density=291.16 kg/m3, isochoric heat capacity | 93.41
601.16 K, Fluid (supercritical or subcritical phases), Mass density=188.05 kg/m3, isochoric heat capacity | 106.16
601.16 K, Liquid, Isochoric heat capacity | 102.61
601.19 K, Fluid (supercritical or subcritical phases), Mass density=301.94 kg/m3, isochoric heat capacity | 94.4
601.19 K, Fluid (supercritical or subcritical phases), Mass density=305.44 kg/m3, isochoric heat capacity | 94.51
601.19 K, Fluid (supercritical or subcritical phases), Mass density=320.33 kg/m3, isochoric heat capacity | 88.79
601.2 K, Fluid (supercritical or subcritical phases), Mass density=188.05 kg/m3, isochoric heat capacity | 93.94
601.21 K, Fluid (supercritical or subcritical phases), Mass density=291.16 kg/m3, isochoric heat capacity | 94.65
601.21 K, Fluid (supercritical or subcritical phases), Mass density=292.97 kg/m3, isochoric heat capacity | 99.73
601.24 K, Fluid (supercritical or subcritical phases), Mass density=342.18 kg/m3, isochoric heat capacity | 88.83
601.28 K, Fluid (supercritical or subcritical phases), Mass density=320.33 kg/m3, isochoric heat capacity | 91.03
601.29 K, Fluid (supercritical or subcritical phases), Mass density=301.94 kg/m3, isochoric heat capacity | 98.17
601.3 K, Fluid (supercritical or subcritical phases), Mass density=188.05 kg/m3, isochoric heat capacity | 86.48
601.34 K, Fluid (supercritical or subcritical phases), Mass density=285.71 kg/m3, isochoric heat capacity | 107.97
601.34 K, Fluid (supercritical or subcritical phases), Mass density=301.94 kg/m3, isochoric heat capacity | 95.7
601.34 K, Liquid, Isochoric heat capacity | 107.97
601.37 K, Fluid (supercritical or subcritical phases), Mass density=285.71 kg/m3, isochoric heat capacity | 99.59
601.37 K, Fluid (supercritical or subcritical phases), Mass density=294.44 kg/m3, isochoric heat capacity | 105.52
601.37 K, Fluid (supercritical or subcritical phases), Mass density=297.6 kg/m3, isochoric heat capacity | 102.84
601.37 K, Fluid (supercritical or subcritical phases), Mass density=342.18 kg/m3, isochoric heat capacity | 89.33
601.38 K, Fluid (supercritical or subcritical phases), Mass density=188.05 kg/m3, isochoric heat capacity | 66.72
601.39 K, Fluid (supercritical or subcritical phases), Mass density=291.16 kg/m3, isochoric heat capacity | 92.22
601.45 K, Fluid (supercritical or subcritical phases), Mass density=285.71 kg/m3, isochoric heat capacity | 94.44
601.45 K, Fluid (supercritical or subcritical phases), Mass density=294.44 kg/m3, isochoric heat capacity | 102.41
601.45 K, Fluid (supercritical or subcritical phases), Mass density=297.6 kg/m3, isochoric heat capacity | 99.66
601.45 K, Fluid (supercritical or subcritical phases), Mass density=301.94 kg/m3, isochoric heat capacity | 92.5
601.46 K, Fluid (supercritical or subcritical phases), Mass density=299.79 kg/m3, isochoric heat capacity | 97
601.47 K, Fluid (supercritical or subcritical phases), Mass density=320.33 kg/m3, isochoric heat capacity | 92.7
601.5 K, Fluid (supercritical or subcritical phases), Mass density=188.05 kg/m3, isochoric heat capacity | 72.1
601.53 K, Fluid (supercritical or subcritical phases), Mass density=299.79 kg/m3, isochoric heat capacity | 99
601.54 K, Fluid (supercritical or subcritical phases), Mass density=285.71 kg/m3, isochoric heat capacity | 89.22
601.54 K, Fluid (supercritical or subcritical phases), Mass density=297.6 kg/m3, isochoric heat capacity | 101.22

From the NIST ThermoML archive (doi:10.1007/s10765-009-0602-6)
